Measurements published in patent US4690920A, “Derivative of cephalosporanic acid and pharmaceutical composition comprising the same” (Kureha Kagaku Kogyo Kabushiki Kaisha, priority 1982, dated 1987).

What was measured:
[1] = tested on: A species of Lactobacillus; test: Effect on the intestinal bacterial colonies: number of a species of Lactobacillus in feces; assay type: in vivo, Lactobacillus (feces of female ICR mice); details: for Log10 value of the number of bacterial cells/g of feces, a species of Lactobacillus: oral, 500 mg/kg/day for 2 days, feces one day after administration, before administration 9.0
Procedure: (§1) After collecting the feces of a group of mice, each of the compounds represented by the formula (I) was orally administered to each of the group for 2 continued days at a daily dose rate of 500 mg per kg body weight, and the feces were again collected one day after the administration. Each portion of the thus collected, two kinds of the feces was cultured at 25° C. or 37° C. in a variety of culture media for one to five days to see the state of growth of the following bacteria which are present habitually in the intestine of the mouse: Escherichia coli, Pseudomonas aeruginosa, a streptococcus bacterial species, a lactobacillis bacteria, Lactobacillus bifidus and a bacterioides bacteria.
(§2) Each of the compounds, respectively produced in Examples 1 to 6 was orally administered for two continued days at a daily dosage of 500 mg/kg body weight to each of five female ICR mice of a group after 6 weeks of birth.
(§3) Each of the two fecal specimens respectively collected before and after one day of the administration was diluted with 100 times by weight of an anaerobic diluent (a phosphoric buffer solution) and was ground in a mortar, and 0.1 ml of the ground material was smeared on each of the following culture media for the following bacteria and the thus inoculated culture media were incubated under the following conditions. Thereafter, the number of the following bacteria was determined on each culture medium.
a species of LBS agar 37° C., for 5 days, […]

Lactobacillus bifidus = test: Effect on the intestinal bacterial colonies: number of Lactobacillus bifidus in feces; assay type: in vivo, Lactobacillus bifidus (feces of female ICR mice); details: oral, 500 mg/kg/day for 2 days; feces one day after administration; before administration 8.0
Procedure: as §1, §2, §3
BS agar 37° C., for 5 days, […]

[2] = tested on: A species of Bacterioides; test: Effect on the intestinal bacterial colonies: number of a species of Bacterioides in feces; assay type: in vivo, Bacteroides (feces of female ICR mice); details: oral, 500 mg/kg/day for 2 days; feces one day after administration; before administration 8.1
Procedure: as §1, §2, §3
a species of NBGT agar 37° C., for 5 days,7 -Bacteroides anaer

Pseudomonas aeruginosa = test: Effect on the intestinal bacterial colonies: number of Pseudomonas aeruginosa in feces; assay type: in vivo, Pseudomonas aeruginosa (feces of female ICR mice); details: oral, 500 mg/kg/day for 2 days; feces one day after administration; before administration <3.0
Procedure: as §1, §2, §3
NAC agar 37° C., for 1 day, […]

Escherichia coli = test: Effect on the intestinal bacterial colonies: number of Escherichia coli in feces; assay type: in vivo, Escherichia coli (feces of female ICR mice); details: for Log10 value of the number of bacterial cells/g of feces, Escherichia coli: oral, 500 mg/kg/day for 2 days, feces one day after administration, before administration 7.0
Procedure: as §1, §2, §3
DHL agar 37° C., for 1 day, […]

[3] = tested on: A species of Streptococcus; test: Effect on the intestinal bacterial colonies: number of a species of Streptococcus in feces; assay type: in vivo, Streptococcus (feces of female ICR mice); details: oral, 500 mg/kg/day for 2 days; feces one day after administration; before administration 6.4
Procedure: as §1, §2, §3
a species of TATAC agar 37° C., for 1 day, […]

[4] = tested on: Staphylococcus aureus IAM 1011; test: Anti-bacterial activity, agar plate dilution method (MIC), Staphylococcus aureus; assay type: cell-based; details: 18 to 24 hours, 37° C.; for Minimum concentration of inhibiting growth of Staphylococcus aureus (MIC): Mueller-Hinton agar; for MIC: IAM1011, Mueller-Hinton agar, read-out: Minimum concentration of inhibiting growth of Staphylococcus aureus (MIC)
Procedure: (§4) 3-1: The minimum growth-inhibiting concentration (MIC) of each of the compounds represented by the formula (I) was measured according to the standard procedures of Japan Society of Chemotherapy against each of the following bacterial species:
Staphylococcus aureus, IAM 1011
(§5) Anti-bacterial activity of each of the compounds produced in Examples 1 to 6 was measured according to the standard procedures of Japan Society of Chemotherapy in agar plate dilution method as follows:
(§6) As a test bacterial species, Escherichia coli IFO 12734 and Staphylococcus aureus IAM 1011, and each strain was inoculated into Mueller-Hinton's culture medium for 18 to 48 hours at 37° C., and while using the thus cultured bacteria, each of the test bacterial liquid containing 10^6 cells in one ml was prepared.
(§7) Separately, after preparing each series of diluted aqueous solutions of each of the compounds produced in Examples 1 to 6, respectively, each of them was mixed in amount of 1/9 time by weight with the Mueller-Hinton's culture medium and each flat agar culture plate was prepared by using the thus formed mixture.

[5] = tested on: Staphylococcus aureus IAM 1011; test: Model test for verifying the activation in living body: growth-inhibition circle with/without rat liver S-9 mix; assay type: cell-based; details: 20 min at 37° C., then 18 hours at 37° C.; for Sign: diameter of growth-inhibiting circle as percentage of that due to compound of formula (II), with the addition of S-9 mix: with the addition of S-9 mix (rat liver homogenate)
Procedure: On each flat culture plate prepared by adding 10^8 cells/ml of a preliminarily cultured Staphylococcus aureus IAM 1011 into 50 times by weight of Mueller-Hinton's agar culture medium, a penicillin cup of 8 mm in diameter was placed, and into each cup 0.1 ml of each of the compounds represented by the formula (I) or 0.1 ml of a cultured product of each of the compounds represented by the formula (I) together with a rat liver homogenate (containing a metabolism-activating enzyme, referred to as S-9 mix) was introduced. The diameter of each growth-inhibition circle formed around the cup after incubating the flat culture plate with the cup for 18 hours at 37° C. was measured, and the thus obtained value was compared to the value obtained by the same procedures except for using the compound represented by the formula (II), the starting compound instead of each of the compounds represented by the formula (I).
As a metabolism-activating enzyme, a rat liver homogenate (S-9, manufactured by Oriental Yeast Co.) was used in the following composition (referred to as S-9 mix, hereinafter):
After mixing 0.1 ml of a solution of the compound to be tested with 0.9 ml of S-9 mix or 0.9 ml of 0.1M phosphoric acid buffer solution, the mixture was subjected to shaking culture for 20 min at 37° C. to prepare a test reaction solution for use in the following experiment.
Staphylococcus aureus IAM 1011 was inoculated to Mueller-Hinton's culture medium and the inoculum was cultured for 18 hours at 37° C. and after adjusting the number of the bacterial cells to 10^8 /ml of the culture medium, 50 times by weight of the Mueller-Hinton's agar culture medium were added to the cultured medium to prepare flat culture plates.
After placing a penicillin-cup of 8 mm in diameter on each of the thus prepared flat culture plates, 0.1 ml of the above-mentioned test reaction solution was introduced into the penicillin-cup, and after leaving the system for 2 hours at 4° C., the system was incubated for 18 hour at 37° C., and the diameter of the growth-inhibition circle around the cup on the culture plate was determined.
The thus obtained diameter of the growth-inhibiting circle due to each of the compounds produced respectively in Examples 1 to 6 was compared to that due to the compound repesente by the formula (II), substituted cephalosporanic acid by percentage, and the following signs were respectively given to the respective compounds as follows: […]

[6] = tested on: Escherichia coli IFO 12734; test: Anti-bacterial activity, agar plate dilution method (MIC), Escherichia coli; assay type: cell-based; details: 18 to 24 hours, 37° C.; for Minimum concentration of inhibiting growth of Escherichia coli (MIC): Mueller-Hinton agar; for MIC: IFO12734, Mueller-Hinton agar, read-out: Minimum concentration of inhibiting growth of Escherichia coli (MIC)
Procedure: as §4
Escherichia coli, IFO 12734 and
as §5, §6, §7

[7] = compared to that before administration

| Compound | number of a certain species of Lactobacillus after administration (in words) [1, 7] | Log10 value of the number of bacterial cells/g of feces, a species of Lactobacillus [1] | Log10 value of the number of bacterial cells/g of feces, Lactobacillus bifidus (Lactobacillus bifidus) | Log10 value of the number of bacterial cells/g of feces, a species of Bacterioides [2] | Log10 value of the number of bacterial cells/g of feces, Pseudomonas aeruginosa (Pseudomonas aeruginosa) | number of cells of Escherichia coli after administration (in words) (Escherichia coli; [7]) | Log10 value of the number of bacterial cells/g of feces, Escherichia coli (Escherichia coli) | Log10 value of the number of bacterial cells/g of feces, a species of Streptococcus [3] | Minimum concentration of inhibiting growth of Staphylococcus aureus (MIC) [4] | Sign: diameter of growth-inhibiting circle as percentage of that due to compound of formula (II), with the addition of S-9 mix [5] | Sign: diameter of growth-inhibiting circle as percentage of that due to compound of formula (II), without adding S-9 mix [5] | Minimum concentration of inhibiting growth of Escherichia coli (MIC) [6] | MIC [4] | MIC [6] |
| --- | --- | --- | --- | --- | --- | --- | --- | --- | --- | --- | --- | --- | --- | --- |
| CO[C@@]1(NC(=O)CSCC#N)C(=O)N2C(C(=O)O)=C(CSc3nnnn3C)CS[C@@H]21 [CEFMETAZOLE, reference compound] | showed a reduction | 4.0 Log10 cells/g of feces | 3.8 Log10 cells/g of feces | 4.6 Log10 cells/g of feces | 7.0 Log10 cells/g of feces | showed an increase | < 3.0 Log10 cells/g of feces | < 3.0 Log10 cells/g of feces | – | – | – | – | – | – |
| COC1(NC(=O)CSCC#N)C(=O)N2C(C(=O)Nc3ccc(C(=O)O)cc3)=C(CSc3nnnn3C)CSC21 (stereo not drawn) [Example 1, N-(4-carboxyphenyl)-{7-beta-cyanomethylthioacetamido-7-alpha-methoxy-3-[(1-methyl-1H-tetrazol5-yl)thio]methyl-3-cepheme-4-carboxylic}amide] | – | 8.9 Log10 cells/g of feces | 8.0 Log10 cells/g of feces | 8.1 Log10 cells/g of feces | < 3.0 Log10 cells/g of feces | – | 7.2 Log10 cells/g of feces | 6.0 Log10 cells/g of feces | ≥ 100 microgram/ml | + (1 to 33) | - (0) | ≥ 100 microgram/ml | – | – |
| COC(=O)c1ccc(NC(=O)C2=C(CSc3nnnn3C)CSC3N2C(=O)C3(NC(=O)CSCC#N)OC)cc1 (stereo not drawn) [Example 2, N-(4-carbomethoxyphenyl)-{7-beta-cyanomethylthioacetamido-7-alpha-methoxy-3-[(1-methyl-1H-tetrazol-5-yl)thio]methyl-3-cepheme-4-carboxylic}amide] | – | 9.1 Log10 cells/g of feces | 8.0 Log10 cells/g of feces | 8.0 Log10 cells/g of feces | < 3.0 Log10 cells/g of feces | – | 6.6 Log10 cells/g of feces | 6.2 Log10 cells/g of feces | ≥ 100 microgram/ml | + (1 to 33) | - (0) | ≥ 100 microgram/ml | – | – |
| COC(=O)Cc1ccc(NC(=O)C2=C(CSc3nnnn3C)CS[C@H]3N2C(=O)[C@]3(NC(=O)CSCC#N)OC)cc1 [Example 3, N-(4-carbomethoxymethylphenyl)-{7-betacyanomethylthioacetamido-7-alpha-methoxy-3-[(1-methyl-1H-tetrazol-5-yl)thio]methyl-3-cepheme-4-carboxylic}amide] | – | 9.1 Log10 cells/g of feces | 7.9 Log10 cells/g of feces | 8.0 Log10 cells/g of feces | < 3.0 Log10 cells/g of feces | – | 7.1 Log10 cells/g of feces | 6.0 Log10 cells/g of feces | – | ± (0 to 1) | - (0) | – | ≥ 100 µg/mL | ≥ 100 µg/mL |
| CO[C@@]1(NC(=O)CSCC#N)C(=O)N2C(C(=O)Nc3ccc(O)cc3)=C(CSc3nnnn3C)CS[C@@H]21 [Example 5, N-(4-hydroxyphenyl)-{7-beta-cyanomethylthioacetamido-7-alpha-methoxy-3-[(1-methyl-1H-tetrazol-5-yl)thio]methyl-3-cepheme-4-carboxylic}amide] | – | 9.0 Log10 cells/g of feces | 8.2 Log10 cells/g of feces | 7.9 Log10 cells/g of feces | < 3.0 Log10 cells/g of feces | – | 6.7 Log10 cells/g of feces | 6.6 Log10 cells/g of feces | – | + (1 to 33) | - (0) | – | ≥ 100 µg/mL | ≥ 100 µg/mL |
